# Laboratory results: publication PMC3116189, “Novel Natural Inhibitors of CYP1A2 Identified by in Silico and in Vitro Screening” (International Journal of Molecular Sciences, 2011)
# “Also recorded” adds a separate entry of the source.
# Target: T1, CYP1A2 (Homo sapiens, UniProt P05177)
# T1 sequence (P05177 1-516): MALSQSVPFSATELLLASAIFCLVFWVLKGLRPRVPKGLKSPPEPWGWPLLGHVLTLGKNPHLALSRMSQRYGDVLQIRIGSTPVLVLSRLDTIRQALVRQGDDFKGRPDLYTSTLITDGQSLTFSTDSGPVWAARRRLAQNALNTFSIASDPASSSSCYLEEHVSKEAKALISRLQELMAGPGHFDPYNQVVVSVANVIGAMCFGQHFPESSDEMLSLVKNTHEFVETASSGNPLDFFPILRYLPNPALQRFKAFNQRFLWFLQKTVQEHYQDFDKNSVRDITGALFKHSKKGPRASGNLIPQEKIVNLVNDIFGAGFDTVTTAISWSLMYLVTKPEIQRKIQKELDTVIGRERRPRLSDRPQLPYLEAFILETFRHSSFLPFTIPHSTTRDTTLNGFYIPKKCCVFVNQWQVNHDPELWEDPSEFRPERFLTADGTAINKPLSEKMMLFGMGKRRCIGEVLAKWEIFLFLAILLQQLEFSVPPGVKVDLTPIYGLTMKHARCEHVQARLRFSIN
# Experiment: in vitro
# Type: biochemical
# Conditions: 1 μM active ingredient, Rh CYP1A2-mediated phenacetin O-deethylation, test dataset of 202 herb ingredients
# Protocol: A total of 18 candidate compounds selected by pharmacophore and docking were examined for their potential to inhibit rhCYP1A2 phenacetin O-deethylation activity at a test concentration of 1 μM.
# The basic incubation medium contained 100 mM potassium phosphate buffer (PH 7.4), 50 pmol recombinant human CYP1A2, 25 μM phenacetin and 1 μM active ingredients. The final incubation volume was 200 μL. After 5 min pre-incubation at 37 °C, the reaction was initiated by the addition of NADPH-generating system (5 mM MgCl2, 10 mM glucose 6-phosphates, 1 mM NADPH, and 2.5 U per mL glucose 6-phosphate dehydrogenase). Incubations were performed in a 37 °C shaking water bath for 1 h. Reactions were stopped by adding 0.4 mL of ice-cold acetonitrile containing 0.2 mg/L tinidazole (IS). […] The column was maintained at 35 °C and the injection volume was 10 μL.
# 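Further: recombinant CYP1A2 incubated for 1 h at 37 °C, with the reaction started by an NADPH-generating system.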
row,Compound,% of Control Indication Activity (Mean)
1,COc1cc(O)cc(O)c1C(=O)/C=C/c1ccccc1 [Cardamonin],> 90%
2,C=C1C(=O)O[C@@H]2C[C@@]3(C)CCC[C@H](C)C3=C[C@H]12 [Alantolactone],> 90%
3,C[C@@H]1CCCCCCCCCCCCC(=O)C1 [Muscone],> 90%
4,COc1cc2c(c(OC)c1OC)-c1c(cc(OC)c(OC)c1OC)C[C@H](C)[C@H](C)C2 [Deoxyschizandrin],> 90%
5,C[C@H]1CC[C@@]2(O)C(C)(C)[C@@H]3CC[C@@]2(C)[C@H]1C3 [Patchouli alcohol],> 90%
6,COc1ccc(-c2oc3c(CC=C(C)C)c(O[C@@H]4O[C@H](CO)[C@@H](O)[C@H](O)[C@H]4O)cc(O)c3c(=O)c2O)cc1 [Icariside I],> 90%
7,Oc1cc(O)c2c(c1)O[C@H](c1ccc(O)c(O)c1)[C@@H](O)C2 [(+)-Catechin],> 90%

# Same assay, conditions: 1 μM test concentration
row,Compound,inhibitory activity to CYP1A2 (10% or greater inhibition at 1 μM)
1,"O=c1ccc2ccc(Oc3cc4cc(O)c(O)cc4oc3=O)cc2o1 [zhang 300, Edgeworthin]",found to have inhibition of CYP1A2 activity; also recorded: confirmed to have inhibitory activities to CYP1A2
2,"COc1cc(-c2oc3cc(O)c(OC)c(O)c3c(=O)c2O)ccc1O [zhang 817, Spinacetin]",found to have inhibition of CYP1A2 activity; also recorded: confirmed to have inhibitory activities to CYP1A2

# Same assay, conditions: 1 μM test concentration; listed as 616
row,Compound,inhibitory activity to CYP1A2 (10% or greater inhibition at 1 μM)
1,"COc1cc(C[C@H]2COC(=O)[C@@H]2Cc2ccc(O)c(OC)c2)ccc1O [zhang 616, (+)-Matairesinol]",found to have inhibition of CYP1A2 activity; also recorded: confirmed to have inhibitory activities to CYP1A2

# Same assay, conditions: human, recombinant enzyme, pH 7.4
row,Compound,"activity at 1 h, 1 μM"
1,O=C/C=C/c1ccccc1 [Cinnamaldehyde],> 90%
2,CNCC(O)c1ccc(O)cc1 (stereo not shown) [Synephrine],> 90%
3,COc1cc(C(=O)O[C@H]2[C@@H]3C=CO[C@@H](O[C@@H]4O[C@H](CO)[C@@H](O)[C@H](O)[C@H]4O)[C@@H]3[C@@]3(CO)O[C@@H]23)ccc1O [Picroside-II],> 90%
4,O=c1cc(-c2ccccc2)oc2cc(O)c(O)c(O)c12 [Baicalein],> 90%
5,CN1CCc2cc3c(cc2C(=O)Cc2ccc4c(c2C1)OCO4)OCO3 [Protopine],> 90%
6,O=C1c2cccc(O)c2C(=O)c2c(O)cc(CO)cc21 [Aloe-emodin],> 90%
7,COc1cc(C2Oc3cc([C@H]4Oc5cc(O)cc(O)c5C(=O)[C@@H]4O)ccc3OC2CO)ccc1O (stereo partly shown) [Silibinin],> 90%
8,Cc1cc(O)c2c(c1)C(=O)c1cccc(O)c1C2=O [Chrysophanol],77.7%

# Same assay, conditions: human, recombinant human CYP1A2, pH 7.4, probe phenacetin (25 μM), O-deethylation to acetaminophen; 1 μM active ingredient, Rh CYP1A2-mediated phenacetin O-deethylation, test dataset of 202 herb ingredients; read-out: % of Control Indication Activity (Mean)
row,Compound,"activity at 1 h, 1 μM"
1,CC(C)=CCC[C@](C)(O[C@@H]1O[C@H](CO)[C@@H](O)[C@H](O)[C@H]1O)[C@H]1CC[C@]2(C)[C@@H]1[C@H](O)C[C@@H]1[C@@]3(C)CC[C@H](O)C(C)(C)[C@@H]3[C@@H](O)C[C@]12C [Ginsenoside F1],> 90%
2,COc1cc(O)cc2c1C(=O)C[C@@H](c1ccccc1)O2 [Alpinetin],> 90%
3,COc1ccc(-c2coc3cc(O)ccc3c2=O)cc1 [Formononetin],> 90%
4,O=C1c2c(O)cccc2C([C@@H]2O[C@H](CO)[C@@H](O)[C@H](O)[C@H]2O)c2cc(CO)cc(O)c21 (stereo partly shown) [Bar baloin],> 90%
5,C[C@@]12C[C@@]3(O)O[C@@H](O1)[C@]1(COC(=O)c4ccccc4)[C@H]3C[C@@]12O[C@@H]1O[C@H](CO)[C@@H](O)[C@H](O)[C@H]1O [Paeoniflorin],> 90%
6,COc1c2ccc(-c3ccccc3)oc-2cc(=O)c1C [Dracorhodin],21.1%
7,O=C(O)c1ccc(O)c(O)c1 [Protocatechuic acid],> 90%
8,Cc1ccc(C(C)C)c(O)c1 [Thymol],> 90%
9,O=C(/C=C/c1ccc(O)c(O)c1)O[C@@H]1C[C@](O)(C(=O)O)C[C@@H](O)[C@H]1O [Chlorogenic acid],> 90%
10,CC(C)=CCC[C@](C)(O[C@@H]1O[C@H](CO)[C@@H](O)[C@H](O)[C@H]1O)[C@H]1CC[C@]2(C)[C@@H]1[C@H](O)C[C@@H]1[C@@]3(C)CC[C@H](O)C(C)(C)[C@@H]3[C@@H](O[C@@H]3O[C@H](CO)[C@@H](O)[C@H](O)[C@H]3O[C@@H]3O[C@@H](C)[C@H](O)[C@@H](O)[C@H]3O)C[C@]12C [Ginsenoside Re],> 90%
11,C/C1=C\CC[C@]23O[C@H]2[C@@H](OC3=O)c2c(C)coc2C1 [Linderane],> 90%
12,OC[C@H]1O[C@@H](Oc2cc(O)cc(/C=C/c3ccc(O)cc3)c2)[C@H](O)[C@@H](O)[C@@H]1O [Polydatin],> 90%

# Same assay, conditions: human, recombinant human CYP1A2, pH 7.4, probe phenacetin (25 μM), O-deethylation to acetaminophen; 1 μM test compound, 25 μM phenacetin, average of duplicate determinations; read-out: % of Control Indication Activity
row,Compound,"activity at 1 h, 1 μM"
1,"O=c1c(O[C@@H]2OC[C@@H](O)[C@@H](O)[C@@H]2O)c(-c2ccc(O)c(O)c2)oc2cc(O)cc(O)c12 [zhang 205, quercetin-3-O-β-D-arabinopyranoside]",> 90%
2,"O=c1ccc2ccc(Oc3cc4cc(O)c(O)cc4oc3=O)cc2o1 [zhang 300, Edgeworthin]",< 90%
3,"COc1cc(-c2oc3cc(O)c(OC)c(O)c3c(=O)c2O)ccc1O [zhang 817, Spinacetin]",< 90%
4,"COc1cc(C2Oc3c(ccc4ccc(=O)oc34)O[C@H]2CO)ccc1O (stereo partly shown) [zhang 271, 5′-demethoxy Daphneticin]",> 90%

# Same assay, conditions: recombinant enzyme
row,Compound,% of Control Indication Activity (Mean)
1,CC1(C)CC[C@]2(C(=O)O)CC[C@]3(C)C(=CC[C@@H]4[C@@]5(C)CC[C@H](O[C@@H]6O[C@H](C(=O)O)[C@@H](O)[C@H](O[C@@H]7OC[C@@H](O)[C@H](O)[C@H]7O)[C@H]6O)C(C)(C)[C@@H]5CC[C@]43C)[C@@H]2C1 [Momordin Ic],> 90
2,COc1cc(/C=C/C(=O)OCC[N+](C)(C)C)cc(OC)c1O [Sinapine],> 90

# Same assay, conditions: recombinant enzyme, pH 7.4
row,Compound,activity
1,CN[C@@H](C)[C@H](O)c1ccccc1 [Ephedrine],> 90%
2,COC1=C[C@@H]2[C@@H]3Cc4ccc(OC)c(O)c4[C@]2(CCN3C)CC1=O [Sinomenine],> 90%

# Same assay, conditions: recombinant enzyme, pH 7.4; 1 μM active ingredient, Rh CYP1A2-mediated phenacetin O-deethylation, test dataset of 202 herb ingredients; read-out: % of Control Indication Activity (Mean)
Compound,activity,"activity at 1 h, 1 μM"
COC(=O)C1=CCCN(C)C1 [Arecoline],> 90%,–
CC1=C2C(=O)[C@H]3[C@@H](CC=C4C[C@@H](O)CC[C@@]43C)[C@@H]2CC[C@]12O[C@@H]1C[C@H](C)CN[C@H]1[C@H]2C [Jervine],–,> 90%
COc1cc(-c2oc3cc(O)cc(O)c3c(=O)c2O)ccc1O [Isorhamnetin],> 90%,–
CC1(C)CC[C@]2(C(=O)O)CC[C@]3(C)C(=CC[C@@H]4[C@@]5(C)CC[C@H](O)C(C)(C)[C@@H]5CC[C@]43C)[C@@H]2C1 [Oleanol ic acid],–,> 90%
CC(C)(C)[C@]1(O)CC2OC(=O)CC23C(=O)OC2OC(=O)[C@H](O)C231 (stereo partly shown) [Bilobalide],–,> 90%
OCc1ccc(O[C@@H]2O[C@H](CO)[C@@H](O)[C@H](O)[C@H]2O)cc1 [Gastrodin],> 90%,–
O=C1C[C@@H]2OCC=C3CN4CC[C@]56c7ccccc7N1[C@H]5[C@H]2[C@H]3C[C@H]46 [Strychnine],–,> 90%
CC(C)=CCOc1c2occc2cc2ccc(=O)oc12 [Imperatorin],> 90%,–
C[C@]12CC[C@H](O)C[C@H]1CC[C@@H]1[C@@H]2CC[C@]2(C)[C@@H](c3ccc(=O)oc3)C[C@H]3O[C@]132 [Resibufogenin],–,> 90%
C[C@@]12C(=O)OC(=O)[C@]1(C)[C@H]1CC[C@@H]2O1 [Cantharidin],–,> 90%
COc1cc2c3c(c1OC)-c1ccccc1C[C@H]3N(C)CC2 [Nuciferine],85.5%,–
